Assays:
Conditions in all cases: Na2HPO4-citric acid buffer, pH 5.0, 40 °C, 15 min, 5–150 mM L-Glu
[1] = system: GADZ1
Excerpt: HPLC of GABA (DABS-Cl derivatisation), initial rate nonlinear fit on GADZ1

[2] = system: GADZ11
Excerpt: HPLC of GABA (DABS-Cl derivatisation), initial rate nonlinear fit on GADZ11

[3] = system: GADZ20
Excerpt: HPLC of GABA (DABS-Cl derivatisation), initial rate nonlinear fit on GADZ20

## N[C@@H](CCC(=O)O)C(=O)O [L-Glu]
[1]
  Km: 45.4 ± 8.63 mM
[2]
  Km: 52.4 ± 5.44 mM
[3]
  Km: 13.3 ± 1.95 mM

Source: publication PMC8336373, “Characterization of three glutamate decarboxylases from Bacillus spp. for efficient γ-aminobutyric acid production” (Microbial Cell Factories, 2021)
